Results reported in patent US20240034992A1, “DOPAMINERGIC NEURONS COMPRISING MUTATIONS AND METHODS OF USE THEREOF” (FUJIFILM Cellular Dynamics, Inc., priority 2021, published 2024).

Experiments:
GCase [1] = molecular target: T1, GCase (Homo sapiens, UniProt P04062); experiment: GCase activity assay after compound treatment, LRRK2 (G2019S) iPSC-derived DA neurons; type: cell-based; settings: 10 uM for two weeks, day 21 post thaw
T1 construct: endogenous in cells; host or cells: DA neurons differentiated from LRRK2 patient, SNCA A53T engineered or AHN (healthy donor) iPSCs (lysate)
T1 sequence (P04062 40-536): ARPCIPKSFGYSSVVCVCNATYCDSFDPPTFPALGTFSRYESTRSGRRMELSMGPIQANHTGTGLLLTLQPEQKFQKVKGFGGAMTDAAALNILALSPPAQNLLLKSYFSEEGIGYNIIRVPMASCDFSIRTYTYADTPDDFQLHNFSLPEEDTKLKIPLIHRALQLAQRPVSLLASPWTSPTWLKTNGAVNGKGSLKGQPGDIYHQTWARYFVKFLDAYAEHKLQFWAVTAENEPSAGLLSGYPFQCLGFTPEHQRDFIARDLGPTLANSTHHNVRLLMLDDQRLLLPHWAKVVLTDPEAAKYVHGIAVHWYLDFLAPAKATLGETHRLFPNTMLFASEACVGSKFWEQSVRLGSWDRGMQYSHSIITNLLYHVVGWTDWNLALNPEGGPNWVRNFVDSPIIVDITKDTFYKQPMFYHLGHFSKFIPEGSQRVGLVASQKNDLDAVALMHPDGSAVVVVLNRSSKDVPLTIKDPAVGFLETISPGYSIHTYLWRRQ
Procedure: (§3) The cells were harvested, lysed and centrifuged at 20,000×g for 20 min at 4° C. […] Recombinant human Glucosylceramidase/GBA (rhGBA) (R&D, 7410-GHB-020) was used as a positive control. Samples were incubated for 40 minutes at 37° C. and reaction stopped by adding equivolume 1M glycine, pH 12.5. 100 μl of reactions were loaded into white 96-well plates (Nunc, #136101) and fluorescence (ex=355 nm, em=460, 0.1 s) signal were measured in the CLARIOstar plate reader (Molecular Devices). Relative fluorescent units (RFUs) from non CBE-treated lysates were calculated by subtracting the signal from the corresponding CBE-treated lysates. […] DA neurons were cultured at high density (200,000/well) in the 96 well plates. Gcase activity was measured from DA neurons derived from GBA, LRRK2 and AHN iPSCs after compound treatment. […] Total protein in the lysate was quantified using Pierce BCA Protein Assay Kit (ThermoFisher). […] Single compounds were tested both for acute exposure (3 days) and chronic exposure (two weeks).

GCase [2] = molecular target: T1, GCase; experiment: GCase activity assay after compound treatment, SNCA A53T iPSC-derived DA neurons; type: cell-based; settings: 10 uM for two weeks, day 21 post thaw
Procedure: as §3

GCase [3] = molecular target: T1, GCase; experiment: GCase activity assay after compound treatment, AHN iPSC-derived DA neurons; type: cell-based; settings: 10 uM for two weeks, day 21 post thaw, from 165052 (DMSO vehicle)
Procedure: as §3

LRRK2 DA neurons = experiment: Calcium imaging (Ca oscillation, FDSS/μCELL) of DA neuron spheroids, LRRK2; type: cell-based, human
Procedure: (§1) For calcium imaging experiments, DA neurons were cultured as spheroids (50,000/well) in the 384 U bottom ULA plates (S-bio plates) and fed with Brainphys complete media (Brainphys basal media+neural supplement A+NSS). […] On day 14 post-plating (7 days post-treatment) cells were loaded with 1× EarlyTOX cardiotoxicity kit and after 2 hours of incubation at 37° C., Ca2+ oscillation captured using FDSS/μCELL instrument for 20 minutes. Waveform software was used for quantification of Ca oscillation and data were analyzed using GraphPad Prism.
(§2) Calcium oscillation traces of day 14 post plated DA neurons were captured using FDSS/μCELL instrument for 20 minutes. […] Calcium transient properties including (FIG. 13B) number of peaks, (FIG. 13C) peak rates per minute and (FIG. 13D) area under the curve/peak (average) were quantified for all wells (repeats) of each cell line using Waveform software.

SNCA DA neurons = experiment: Calcium imaging (Ca oscillation, FDSS/μCELL) of DA neuron spheroids, SNCA; type: cell-based, human; settings: 10 uM for one week
Procedure: as §1, §2

AHN DA neurons = experiment: Calcium imaging (Ca oscillation, FDSS/μCELL) of DA neuron spheroids, AHN; type: cell-based, human; settings: 10 uM for one week
Procedure: as §1, §2

GCase [4] = experiment: GCase activity assay after compound treatment, GBA (N370S) iPSC-derived DA neurons; type: cell-based, human; settings: for GCase activity (mean±SD): chronic treatment (two weeks) 10 uM, DMSO=90302±3986
Procedure: The cells were harvested, lysed and centrifuged at 20,000×g for 20 min at 4° C. […] Recombinant human Glucosylceramidase/GBA (rhGBA) (R&D, 7410-GHB-020) was used as a positive control. Samples were incubated for 40 minutes at 37° C. and reaction stopped by adding equivolume 1M glycine, pH 12.5. 100 μl of reactions were loaded into white 96-well plates (Nunc, #136101) and fluorescence (ex=355 nm, em=460, 0.1 s) signal were measured in the CLARIOstar plate reader ([…]). Relative fluorescent units (RFUs) from non CBE-treated lysates were calculated by subtracting the signal from the corresponding CBE-treated lysates. […] DA neurons were cultured at high density (200,000/well) in the 96 well plates. Gcase activity was measured from DA neurons derived from GBA, LRRK2 and AHN iPSCs after compound treatment. […] Total protein in the lysate was quantified using Pierce BCA Protein Assay Kit (ThermoFisher). GCase activity can be used as a read out for compound screening with disease neurons where AHN serve as a control and compounds that could rescue the GCase activity would be considered a positive hit. […] Single compounds were tested both for acute exposure (3 days) and chronic exposure (two weeks).

increase in Gcase activity (GCase [1]): 18%
increase in Gcase activity (GCase [2]): 14%
Gcase activity (Mean) (GCase [3]): 171669
GCase activity (mean±SD) (GCase [4]; combinatorial screen, GBA cells): highest GCase activity
Compound: Nc1c(Br)cc(Br)cc1CN[C@H]1CC[C@H](O)CC1 [Ambroxol]
Peak rate (mean±SD) (LRRK2 DA neurons; LRRK2, 10 uM for one week, day 14 post plating, untreated 1.52±0.16): 1.89±0.18 peaks per minute
effect on Ca oscillation compared to the untreated AHN DA neurons (LRRK2 DA neurons; LRRK2 DA neurons, 10 uM for one week): caused hyperexcitability
effect on Ca oscillation compared to the untreated AHN DA neurons (SNCA DA neurons; SNCA DA neurons): caused hyperexcitability
number of peaks (mean±SD) (SNCA DA neurons; SNCA, day 14 post plating, 20 minutes, untreated 24.5±5.3): 33.8±1.5
Peak rate (mean±SD) (SNCA DA neurons; SNCA, day 14 post plating, untreated 1.26±0.3): 1.61±0.12 peaks per minute
effect on Ca oscillation compared to the untreated AHN DA neurons (AHN DA neurons; AHN DA neurons): caused hyperexcitability
number of peaks (mean±SD) (AHN DA neurons; AHN, day 14 post plating, 20 minutes, untreated 21.55±3): 33.75±7.14
Peak rate (mean±SD) (AHN DA neurons; AHN, day 14 post plating, untreated 1.12±0.16): 1.74±0.32 peaks per minute
increase in Gcase activity (GCase [4]; GBA neurons, 10 uM for two weeks, day 21 post thaw): 12%
increase in Gcase activity (GCase [4]; combinatorial screen, GBA cells, chronic treatment 10 uM, compared to DMSO): 48%
GCase activity (mean±SD) (GCase [4]; combinatorial screen, GBA cells, listed as ABX): 133659±10542
